# Results reported in US8921410B2, “Nicotinic acetylcholine receptor sub-type selective amides of diazabicycloalkanes” (Targacept, Inc., priority 2006, dated 2014).
# Read-outs that look alike come from different tables or passages of the source.
# Key:
# human α4β2 nAChR subtype = human α4β2 nAChR subtype (Homo sapiens (Human), UniProt P17787+P43681); test: Radioligand ([3H]nicotine) binding at α4β2 nAChR, SH-EP1/human α4β2 clonal cell membranes
# Protocol: Preparation of Membranes from SH-EP1/Human α4β2 Clonal Cells:
# Cell pellets from 40 150 mm culture dishes were pooled, and homogenized by Polytron (Kinematica GmbH, Switzerland) in 20 milliliters of ice-cold preparative buffer. The homogenate was centrifuged at 48,000 g for 20 minutes at 4° C. The resulting pellet was re-suspended in 20 mL of ice-cold preparative buffer and stored at −20° C.
# (§1) On the day of the assay, the frozen membranes were thawed and spun at 48,000×g for 20 min. The supernatant was decanted and discarded. The pellet was resuspended in Dulbecco's phosphate buffered saline (PBS, Life Technologies) pH 7.4 and homogenized with the Polytron for 6 seconds. Protein concentrations were determined using a Pierce BCA Protein Assay Kit, with bovine serum albumin as the standard (Pierce Chemical Company, Rockford, Ill.).
# (§2) Tissue was rinsed 3 times in PBS, pH 7.4. Scintillation fluid was added to filters containing the washed tissue and allowed to equilibrate.
# (§3) Data were expressed as disintegrations per minute (DPMs). Within each assay, each point had 2-3 replicates. The replicates for each point were averaged and plotted against the log of the drug concentration.
# rat α4β2 nAChR subtype = rat α4β2 nAChR subtype (Rattus norvegicus (Rat), UniProt P09483+P12390); test: Radioligand ([3H]nicotine) binding at α4β2 nAChR, rat cortex membranes
# Protocol: Preparation of Membranes from Rat Cortex:
# (§4) Rats (female, Sprague-Dawley), weighing 150-250 g, were maintained on a 12 h light/dark cycle and were allowed free access to water and food supplied by PMI Nutrition International, Inc. Animals were anesthetized with 70% CO2, and then decapitated. Brains were removed and placed on an ice-cold platform. […] The homogenate was centrifuged at 18,000×g for 20 min at 4° C. and the resulting pellet was re-suspended in 20 volumes of ice-cold water. After 60 min incubation on ice, a new pellet was collected by centrifugation at 18,000×g for 20 min at 4° C. The final pellet was re-suspended in 10 volumes of buffer and stored at −20° C.
# as §1, §2, §3
# α7 nAChR subtype = α7 nAChR subtype (Rattus norvegicus (Rat), UniProt Q05941); test: Radioligand ([3H]MLA) binding at α7 nAChR, rat hippocampus membranes
# Protocol: as §4, with “CO2,” for “CO2, and”, “in 10” for “in 20”
# The binding of [^3H]MLA was measured using a modification of the methods of Davies et al., Neuropharmacol. […] [^3H]MLA (Specific Activity=25-35 Ci/mmol) was obtained from Tocris. The binding of [^3H]MLA was determined using a 2 h incubation at 21° C. Incubations were conducted in 48-well micro-titre plates and contained about 200 μg of protein per well in a final incubation volume of 300 μL. The incubation buffer was PBS and the final concentration of [^3H]MLA was 5 nM. The binding reaction was terminated by filtration of the protein containing bound ligand onto glass fiber filters (GF/B, Brandel) using a Brandel Tissue Harvester at room temperature. […] Each filter was washed with PBS (3×1 mL) at room temperature. Non-specific binding was determined by inclusion of 50 μM non-radioactive MLA in selected wells.
# The inhibition of [^3H]MLA binding by test compounds was determined by including seven different concentrations of the test compound in selected wells. Each concentration was replicated in triplicate. IC50 values were estimated as the concentration of compound that inhibited 50 percent of specific [^3H]MLA binding.
# [1] = [3H]nicotine 5 nM, SH-EP1/human α4β2 membranes, read-out: Human α4β2 Ki
# [2] = [3H]nicotine 5 nM, rat cortex membranes
# [3] = [3H]MLA 5 nM, rat hippocampus membranes
# [4] = did not bind sufficiently in HTS at α7 to warrant Ki determination
# Sequence of human α4β2 nAChR subtype (P43681 29-627): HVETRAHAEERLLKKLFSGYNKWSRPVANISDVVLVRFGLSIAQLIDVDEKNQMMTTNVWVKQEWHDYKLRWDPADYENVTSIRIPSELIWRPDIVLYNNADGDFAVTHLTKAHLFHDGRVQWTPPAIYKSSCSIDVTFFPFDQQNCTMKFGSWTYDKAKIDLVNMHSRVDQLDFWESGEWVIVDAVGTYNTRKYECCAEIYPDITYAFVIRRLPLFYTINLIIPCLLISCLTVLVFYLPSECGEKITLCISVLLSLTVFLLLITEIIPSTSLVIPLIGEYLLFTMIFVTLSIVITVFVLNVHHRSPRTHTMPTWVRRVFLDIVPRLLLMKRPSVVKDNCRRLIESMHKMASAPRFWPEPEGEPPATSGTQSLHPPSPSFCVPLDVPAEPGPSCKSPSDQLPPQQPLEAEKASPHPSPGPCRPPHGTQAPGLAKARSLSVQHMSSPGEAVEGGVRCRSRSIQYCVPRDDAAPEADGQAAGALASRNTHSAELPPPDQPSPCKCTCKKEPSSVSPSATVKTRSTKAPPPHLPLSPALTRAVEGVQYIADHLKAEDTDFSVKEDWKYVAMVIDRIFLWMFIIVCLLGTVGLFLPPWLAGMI
# Sequence of human α4β2 nAChR subtype (P17787 26-502): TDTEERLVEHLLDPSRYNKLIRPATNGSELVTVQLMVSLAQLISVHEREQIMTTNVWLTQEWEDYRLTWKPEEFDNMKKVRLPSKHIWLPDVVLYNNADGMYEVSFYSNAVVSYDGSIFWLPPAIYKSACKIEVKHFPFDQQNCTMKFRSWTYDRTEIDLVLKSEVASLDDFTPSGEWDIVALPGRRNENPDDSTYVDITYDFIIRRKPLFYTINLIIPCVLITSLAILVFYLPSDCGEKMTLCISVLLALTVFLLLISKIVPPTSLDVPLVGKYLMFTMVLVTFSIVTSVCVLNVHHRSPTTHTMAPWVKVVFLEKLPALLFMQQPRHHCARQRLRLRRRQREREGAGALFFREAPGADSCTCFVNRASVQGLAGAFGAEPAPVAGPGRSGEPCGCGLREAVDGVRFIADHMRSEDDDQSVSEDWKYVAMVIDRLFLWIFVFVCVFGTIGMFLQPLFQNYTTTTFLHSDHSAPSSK
# Sequence of rat α4β2 nAChR subtype (P09483 31-630): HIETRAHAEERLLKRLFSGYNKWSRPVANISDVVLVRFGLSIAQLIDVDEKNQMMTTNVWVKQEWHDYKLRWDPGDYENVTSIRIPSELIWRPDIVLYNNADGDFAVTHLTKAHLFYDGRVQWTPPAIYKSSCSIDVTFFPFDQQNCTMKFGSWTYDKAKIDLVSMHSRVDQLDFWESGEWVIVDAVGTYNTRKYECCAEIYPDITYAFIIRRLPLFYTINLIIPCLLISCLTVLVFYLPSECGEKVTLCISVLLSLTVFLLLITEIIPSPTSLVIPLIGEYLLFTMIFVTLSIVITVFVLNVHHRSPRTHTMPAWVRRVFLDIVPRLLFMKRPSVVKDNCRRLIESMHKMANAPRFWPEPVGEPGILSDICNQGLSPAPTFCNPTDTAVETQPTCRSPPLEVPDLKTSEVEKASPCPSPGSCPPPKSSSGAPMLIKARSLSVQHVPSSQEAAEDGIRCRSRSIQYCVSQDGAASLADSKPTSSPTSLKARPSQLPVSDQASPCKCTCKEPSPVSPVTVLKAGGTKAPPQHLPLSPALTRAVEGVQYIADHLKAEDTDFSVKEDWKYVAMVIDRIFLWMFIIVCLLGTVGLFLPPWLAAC
# Sequence of rat α4β2 nAChR subtype (P12390 25-500): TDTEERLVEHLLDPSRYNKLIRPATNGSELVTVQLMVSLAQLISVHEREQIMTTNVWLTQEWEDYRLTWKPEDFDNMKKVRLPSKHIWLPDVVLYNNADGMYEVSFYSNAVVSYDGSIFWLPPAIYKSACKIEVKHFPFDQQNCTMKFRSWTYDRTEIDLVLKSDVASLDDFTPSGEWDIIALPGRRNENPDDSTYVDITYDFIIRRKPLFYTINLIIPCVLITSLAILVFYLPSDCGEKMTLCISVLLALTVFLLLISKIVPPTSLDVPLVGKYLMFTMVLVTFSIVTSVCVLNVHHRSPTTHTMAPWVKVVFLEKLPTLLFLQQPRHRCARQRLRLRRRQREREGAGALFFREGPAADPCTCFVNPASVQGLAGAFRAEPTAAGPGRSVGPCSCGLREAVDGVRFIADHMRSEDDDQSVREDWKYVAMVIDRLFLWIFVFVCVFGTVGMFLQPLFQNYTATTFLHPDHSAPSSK
# Sequence of α7 nAChR subtype (Q05941 23-502): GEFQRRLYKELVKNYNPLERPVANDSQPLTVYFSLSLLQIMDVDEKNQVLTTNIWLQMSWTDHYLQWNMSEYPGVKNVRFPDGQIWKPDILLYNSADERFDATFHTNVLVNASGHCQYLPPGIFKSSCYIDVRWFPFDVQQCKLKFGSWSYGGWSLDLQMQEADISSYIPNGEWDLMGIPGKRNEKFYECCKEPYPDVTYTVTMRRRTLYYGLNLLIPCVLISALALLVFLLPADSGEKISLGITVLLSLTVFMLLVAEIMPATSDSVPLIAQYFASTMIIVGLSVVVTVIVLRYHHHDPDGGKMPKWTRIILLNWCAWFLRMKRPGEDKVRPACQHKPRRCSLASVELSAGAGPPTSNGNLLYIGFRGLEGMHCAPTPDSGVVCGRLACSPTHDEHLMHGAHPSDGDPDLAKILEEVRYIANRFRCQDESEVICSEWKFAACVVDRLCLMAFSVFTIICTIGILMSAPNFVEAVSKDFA
Compound,Ki (human α4β2 nAChR subtype; [1]) [nM],Ki (rat α4β2 nAChR subtype; [2]) [nM],α7 high through-put screening outcome (Ki not determined) (α7 nAChR subtype; [4]),further results
Cc1ncoc1C(=O)N1CC2CNCC2C1 (centres unmarked),9.2,15,–,Ki (α7 nAChR subtype; [3]): 210000 nM
O=C(c1ccc(F)o1)N1CC2CNCC(C2)C1,–,6.4,ND; failed HTS,Ki (human α4β2 nAChR subtype; read-out: Human α4β2 Ki): 4.6 nM
Cc1nocc1C(=O)N1CC2CNCC(C2)C1,21,9.5,ND; failed HTS,–
O=C(c1cc(Br)co1)N1CC2CNCC(C2)C1,–,12,–,Ki (human α4β2 nAChR subtype; read-out: Human α4β2 Ki): 1.7 nM; α7 high through-put screening outcome (Ki not determined) (α7 nAChR subtype): ND; failed HTS
O=C(c1occc1F)N1CC2CNCC2C1 (centres unmarked),27,35,–,α7 high through-put screening outcome (Ki not determined) (α7 nAChR subtype): ND; failed HTS
O=C(c1ncco1)N1CC2CNCC(C2)C1,85,370,ND; failed HTS,–
Cc1oc(C(=O)N2CC3CNCC3C2)cc1Br (centres unmarked),22,–,ND; failed HTS,Ki (rat α4β2 nAChR subtype): 20 nM
O=C(c1cc(F)co1)N1CC2CNCC2C1 (centres unmarked),21,36,ND; failed HTS,–
O=C(c1ccncc1)N1CC2CNCC(C2)C1,18,110,–,Ki (α7 nAChR subtype; [3]): 1700 nM
N#Cc1ccc(C(=O)N2CC3CNCC3C2)o1 (centres unmarked),–,50,ND; failed HTS,Ki (human α4β2 nAChR subtype; read-out: Human α4β2 Ki): 40 nM
Cc1cc(F)c(C(=O)N2CC3CNCC(C3)C2)o1,62,500,ND; failed HTS,–
O=C(c1cc(-c2ccccc2)co1)N1CC2CNCC2C1 (centres unmarked),86,260,–,Ki (α7 nAChR subtype; [3]): 12000 nM
Cc1cc(C(=O)N2CC3CNCC3C2)no1 (centres unmarked),84,150,ND; failed HTS,–
Cc1ccc(C(=O)N2CC3CNCC3C2)o1 (centres unmarked),28,–,–,Ki (rat α4β2 nAChR subtype): 130 nM; Ki (α7 nAChR subtype): 23000 nM
Cc1oc(C(=O)N2CC3CNCC(C3)C2)cc1Br,5.2,–,ND; failed HTS,Ki (rat α4β2 nAChR subtype): 7.5 nM
O=C(c1occc1Cl)N1CC2CNCC2C1 (centres unmarked),2.4,2.8,ND; failed HTS,–
N#Cc1coc(C(=O)N2CC3CNCC(C3)C2)c1,–,27,ND; failed HTS,Ki (human α4β2 nAChR subtype): 23 nM
O=CNc1ccc(C(=O)N2CC3CNCC3C2)o1 (centres unmarked),63,53,ND; failed HTS,–
CCCCC#Cc1coc(C(=O)N2CC3CNCC3C2)c1 (centres unmarked),21,43,ND; failed HTS,–
O=C(c1cc(Br)no1)N1CC2CNCC2C1 (centres unmarked),44,17,ND; failed HTS,–
O=C(c1cc(C2CC2)on1)N1CC2CNCC(C2)C1,83,–,ND; failed HTS,Ki (rat α4β2 nAChR subtype): 25 nM
Cc1nocc1C(=O)N1CC2CNCC2C1 (centres unmarked),14,24,–,Ki (α7 nAChR subtype; [3]): 56000 nM
N#Cc1ccoc1C(=O)N1CC2CNCC(C2)C1,31,110,ND; failed HTS,–
O=C(c1ccc([N+](=O)[O-])o1)N1CC2CNCC2C1 (centres unmarked),31,35,–,Ki (α7 nAChR subtype; [3]): 2900 nM
Cc1ncoc1C(=O)N1CC2CNCC(C2)C1,64,20,ND; failed HTS,–
O=C(c1cc(-c2ccoc2)co1)N1CC2CNCC2C1 (centres unmarked),95,110,ND; failed HTS,–

Compound,Ki (human α4β2 nAChR subtype; [1]) [nM],Ki (rat α4β2 nAChR subtype; [2]) [nM],α7 high through-put screening outcome (Ki not determined) (α7 nAChR subtype; [4]),further results
O=C(c1cc(-c2cc(F)cc(F)c2)co1)N1CC2CNCC2C1 (centres unmarked),24,54,ND; failed HTS,–
CC(=O)Nc1ccc(C(=O)N2CC3CNCC(C3)C2)o1,210,87,ND; failed HTS,–
O=C(c1cc(Br)co1)N1CC2CNCC2C1 (centres unmarked),18,29,ND; failed HTS,–
N#Cc1ccoc1C(=O)N1CC2CNCC2C1 (centres unmarked),–,–,–,Ki (human α4β2 nAChR subtype; read-out: Human α4β2 Ki): 14 nM; Ki (rat α4β2 nAChR subtype): 25 nM; α7 high through-put screening outcome (Ki not determined) (α7 nAChR subtype): ND; failed HTS
O=C(c1ccon1)N1CC2CNCC2C1 (centres unmarked),90,89,ND; failed HTS,–
COc1ccoc1C(=O)N1CC2CNCC(C2)C1,–,560,ND; failed HTS,Ki (human α4β2 nAChR subtype; read-out: Human α4β2 Ki): 28 nM
O=C(c1cnco1)N1CC2CNCC(C2)C1,26,28,ND; failed HTS,–
O=C(c1cc(-c2ccoc2)co1)N1CC2CNCC(C2)C1,35,12,ND; failed HTS,–
O=C(c1cc(F)co1)N1CC2CNCC(C2)C1,14,28,ND; failed HTS,–
"O=C(c1ccco1)N1CC2CNCC2C1 (centres unmarked) [N-(furan-2-ylcarbonyl)-3,7-diazabicyclo[3.3.0]octane]",33,20,–,Ki (α7 nAChR subtype; [3]): 13000 nM
Cc1cc(C(=O)N2CC3CNCC3C2)on1 (centres unmarked),31,32,ND; failed HTS,–
O=C(c1cc(Br)c(Br)o1)N1CC2CNCC2C1 (centres unmarked),–,–,ND; failed HTS,–
O=C(c1ccc(Br)o1)N1CC2CNCC2C1 (centres unmarked),73,54,–,Ki (α7 nAChR subtype): 12000 nM
C#Cc1ccc(C(=O)N2CC3CNCC(C3)C2)o1,47,220,ND; failed HTS,–
C#Cc1ccc(C(=O)N2CC3CNCC3C2)o1 (centres unmarked),48,140,ND; failed HTS,–
O=C(c1cc(Br)c(Br)o1)N1CC2CNCC(C2)C1,–,–,ND; failed HTS,–
C=Cc1ccoc1C(=O)N1CC2CNCC2C1 (centres unmarked),51,140,ND; failed HTS,–
Cc1ccoc1C(=O)N1CC2CNCC2C1 (centres unmarked),54,44,–,Ki (α7 nAChR subtype; [3]): 25000 nM
O=C(c1ccncc1)N1CC2CNCC2C1 (centres unmarked),160,26,ND; failed HTS,–
O=C(c1ccc(Br)o1)N1CC2CNCC(C2)C1,51,–,ND; failed HTS,Ki (rat α4β2 nAChR subtype): 41 nM
O=C(c1cc(Cl)co1)N1CC2CNCC(C2)C1,5.2,–,ND; failed HTS,Ki (rat α4β2 nAChR subtype): 13 nM
COc1ccoc1C(=O)N1CC2CNCC2C1 (centres unmarked),100,353,ND; failed HTS,–
Cc1cc(F)c(C(=O)N2CC3CNCC3C2)o1 (centres unmarked),14,–,ND; failed HTS,Ki (rat α4β2 nAChR subtype): 65 nM
O=C(c1cc(C(F)(F)F)co1)N1CC2CNCC2C1 (centres unmarked),36,320,ND; failed HTS,–
O=C(c1occc1Cl)N1CC2CNCC(C2)C1,29,–,ND; failed HTS,Ki (rat α4β2 nAChR subtype): 96 nM
O=C(c1ccoc1)N1CC2CNCC2C1 (centres unmarked),220,–,–,Ki (rat α4β2 nAChR subtype): 53 nM; Ki (α7 nAChR subtype; [3]): 3100 nM
